Values quoted from earlier work, collected in PubChem BioAssay AID1259409 (Chemical Carcinogenesis Research Information System (CCRIS), 2018).

System: rodent chemically induced tumor inhibition, incidence and multiplicity
Assay: CCRIS tumor inhibitor studies

Structure (SMILES): CC(=O)Oc1ccccc1C(=O)O
- tumour outcome (control, treated, inhibition, significance) (Carcinogen: 1,2-DIMETHYLHYDRAZINE DIHYDROCHLORIDE, 306-37-6, Dose [Inhibitor]: 0, 10 MG/KG/D IN 0.2 ML OF 5% SODIUM BICARBONATE FOR 1 WK PRIOR +0 AND 1 WK POST CARCINOGEN DOSE (STUDY DURATION: 36 WK), Route [Inhibitor]: SUBCUTANEOUS, Species: RAT, Strain/Sex: SPRAGUE-DAWLEY/MALE, Target Tissue: Type of Lesion: COLON: ADENOCARCINOMA, Dose [Carcinogen]: 30 MG/KG ONCE, Promoter: NONE USED): 50%, 17%, 66%, p<0.05
- tumour outcome (control, treated, inhibition, significance) (Carcinogen: 1,2-DIMETHYLHYDRAZINE DIHYDROCHLORIDE, 306-37-6, Dose [Inhibitor]: 0, 50 MG/KG/D IN 0.6 ML OF 5% SODIUM BICARBONATE BEGINNING 4 WK POST CARCINOGEN DOSE AND CONTINUING FOR DURATION OF STUD, Route [Inhibitor]: SUBCUTANEOUS, Species: RAT, Strain/Sex: SPRAGUE-DAWLEY/MALE, Target Tissue: Type of Lesion: COLON: ADENOCARCINOMA, Dose [Carcinogen]: 30 MG/KG ONCE, Promoter: NONE USED): 42%, 42%, 0%, not significant
- tumour outcome (control, treated, inhibition, significance) (Carcinogen: 2-AMINO-1-METHYL-6-PHENYLIMIDAZO[4,5-B]PYRIDINE [105650-23-5], Dose [Inhibitor]: 400 PPM IN DIET FOR 4 WK BEGINNING WK PRIOR TO FIRST CARCINOGEN DOSE (STUDY DURATION: 25 WK), Route [Inhibitor]: ORAL, Species: RAT, Strain/Sex: SPRAGUE-DAWLEY/FEMALE, Target Tissue: Type of Lesion: MAMMARY GLAND: FIBROADENOMA OR DUCTAL CARCINOMA, Dose [Carcinogen]: 85 MG/KG BW 2X/WK FOR 4 WK (STUDY DURATION: 25 WK), Promoter: NONE): 67.7%, 50.0%, 26%, not significant
- tumour outcome (control, treated, inhibition, significance) (Carcinogen: 2-AMINO-1-METHYL-6-PHENYLIMIDAZO[4,5-B]PYRIDINE, 105650-23-5, Dose [Inhibitor]: 0, 400 PPM IN HIGH FAT DIET FOR 4 WK BEGINNING 1 WK PRIOR TO CARCINOGEN TREATMENT (STUDY DURATION: 25 WK), Route [Inhibitor]: ORAL, Species: RAT, Strain/Sex: SPRAGUE-DAWLEY/FEMALE, Target Tissue: Type of Lesion: MAMMARY GLAND: CARCINOMA, Dose [Carcinogen]: 85 MG/KG BW IN CORN OIL 8 TIMES IN 10 D, Promoter: NONE USED): 21/31 (68%), 14/30 (47%), 31%, not significant
- tumour outcome (control, treated, inhibition, significance) (Carcinogen: 2-AMINO-1-METHYL-6-PHENYLIMIDAZO[4,5-B]PYRIDINE, 105650-23-5, Dose [Inhibitor]: 0, 400 PPM IN HIGH FAT DIET FOR 4 WK BEGINNING 1 WK PRIOR TO CARCINOGEN TREATMENT (STUDY DURATION: 25 WK), Route [Inhibitor]: ORAL, Species: RAT, Strain/Sex: SPRAGUE-DAWLEY/FEMALE, Target Tissue: Type of Lesion: MAMMARY GLAND: FIBROADENOMA, Dose [Carcinogen]: 85 MG/KG BW IN CORN OIL 8 TIMES IN 10 D, Promoter: NONE USED): 3/31 (10%), 2/30 (7%), 30%, not significant
- tumour outcome (control, treated, inhibition, significance) (Carcinogen: 4-(METHYLNITROSAMINO)-1-(3-PYRIDYL)-1-BUTANONE, 64091-91-4, Dose [Inhibitor]: 0, 32 MG/KG BW BUFFERED ASPIRIN IN DIET FOR DURATION OF STUDY BEGINNING 2 WK PRIOR TO CARCINOGEN TREATMENT (STUDY DURATI, Route [Inhibitor]: ORAL, Species: MOUSE, Strain/Sex: STRAIN-A/FEMALE, Target Tissue: Type of Lesion: LUNG: TUMOR, Dose [Carcinogen]: 9.1 MG/MOUSE (TOTAL DOSE) ADMINISTERED IN DRINKING WATER OVER 7 WK, Promoter: NONE USED): 23/24 (96%), 15/15 (100%), -4%, not significant
- tumour outcome (control, treated, inhibition, significance) (Carcinogen: 4-(METHYLNITROSAMINO)-1-(3-PYRIDYL)-1-BUTANONE, 64091-91-4, Dose [Inhibitor]: 0, 32 MG/KG BW NON-BUFFERED ASPIRIN IN DIET FOR DURATION OF STUDY BEGINNING 2 WK PRIOR TO CARCINOGEN TREATMENT (STUDY DU, Route [Inhibitor]: ORAL, Species: MOUSE, Strain/Sex: STRAIN-A/FEMALE, Target Tissue: Type of Lesion: LUNG: TUMOR, Dose [Carcinogen]: 9.1 MG/MOUSE (TOTAL DOSE) ADMINISTERED IN DRINKING WATER OVER 7 WK, Promoter: NONE USED): 23/24 (96%), 14/14 (100%), -4%, not significant
- tumour outcome (control, treated, inhibition, significance) (Carcinogen: 4-(METHYLNITROSAMINO)-1-(3-PYRIDYL)-1-BUTANONE, 64091-91-4, Dose [Inhibitor]: 0, 35 MG/KG BW IN DIET FOR DURATION OF STUDY BEGINNING 2 WK PRIOR TO CARCINOGEN TREATMENT (STUDY DURATION: 25 WK), Route [Inhibitor]: ORAL, Species: MOUSE, Strain/Sex: STRAIN-A/FEMALE, Target Tissue: Type of Lesion: LUNG: TUMOR, Dose [Carcinogen]: 9.1 MG/MOUSE (TOTAL DOSE) ADMINISTERED IN DRINKING WATER OVER 7 WK, Promoter: NONE USED): 23/24 (96%), 14/15 (93%), 3%, not significant
- tumour outcome (control, treated, inhibition, significance) (Carcinogen: 4-(METHYLNITROSAMINO)-1-(3-PYRIDYL)-1-BUTANONE, 64091-91-4, Dose [Inhibitor]: 0, 73 MMOL/KG BW/D IN DIET FOR DURATION OF STUDY BEGINNING 2 WK PRIOR TO CARCINOGEN TREATMENT (STUDY DURATION: 25 WK), Route [Inhibitor]: ORAL, Species: MOUSE, Strain/Sex: STRAIN-A/FEMALE, Target Tissue: Type of Lesion: LUNG: TUMOR, Dose [Carcinogen]: 2.2 MMOL/KG BW (TOTAL DOSE) ADMINISTERED IN DRINKING WATER FOR 7 WK, Promoter: NONE USED): 29/29 (100%), 25/25 (100%), 0%, not significant
- tumour outcome (control, treated, inhibition, significance) (Carcinogen: 4-(METHYLNITROSAMINO)-1-(3-PYRIDYL)-1-BUTANONE, 64091-91-4, Dose [Inhibitor]: 0, 147 MMOL/KG BW/D IN DIETS FOR DURATION OF STUDY BEGINNING 2 WK PRIOR TO CARCINOGEN TREATMENT (STUDY DURATION: 25 WK), Route [Inhibitor]: ORAL, Species: MOUSE, Strain/Sex: STRAIN-A/FEMALE, Target Tissue: Type of Lesion: LUNG:TUMOR, Dose [Carcinogen]: 2.2 MMOL/KG BW (TOTAL DOSE) ADMINISTERED IN DRINKING WATER FOR 7 WK, Promoter: NONE USED): 29/29 (100%), 24/24 (100%), 0%, not significant
- tumour outcome (control, treated, inhibition, significance) (Carcinogen: 4-(METHYLNITROSAMINO)-1-(3-PYRIDYL)-1-BUTANONE, 64091-91-4, Dose [Inhibitor]: 0, 294 MG/KG DIET FOR DURATION OF STUDY BEGINNING 2 WK PRIOR TO CARCINOGEN TREATMENT (STUDY DURATION: 25 WK), Route [Inhibitor]: ORAL, Species: MOUSE, Strain/Sex: STRAIN-A/FEMALE, Target Tissue: Type of Lesion: LUNG: TUMOR, Dose [Carcinogen]: 9.1 MG/MOUSE IN DRINKING WATER FOR 7 WK, Promoter: NONE USED): 29/29 (100%), 24/24 (100%), 0%, not significant
- tumour outcome (control, treated, inhibition, significance) (Carcinogen: 4-(METHYLNITROSAMINO)-1-(3-PYRIDYL)-1-BUTANONE, 64091-91-4, Dose [Inhibitor]: 0, 294 MMOL/KG BW/D IN DIET FOR DURATION OF STUDY BEGINNING 2 WK PRIOR TO CARCINOGEN TREATMENT (STUDY DURATION: 25 WK), Route [Inhibitor]: ORAL, Species: MOUSE, Strain/Sex: STRAIN-A/FEMALE, Target Tissue: Type of Lesion: LUNG: TUMOR, Dose [Carcinogen]: 2.2 MMOL/KG BW (TOTAL DOSE) ADMINISTERED IN DRINKING WATER FOR 7 WK, Promoter: NONE USED): 29/29 (100%), 24/24 (100%), 0%, not significant
- tumour outcome (control, treated, inhibition, significance) (Carcinogen: 4-(METHYLNITROSAMINO)-1-(3-PYRIDYL)-1-BUTANONE, 64091-91-4, Dose [Inhibitor]: 0, 588 MMOL/KG BW/D IN DIET FOR DURATION OF STUDY BEGINNING 2 WK PRIOR TO CARCINOGEN TREATMENT (STUDY DURATION: 25 WK), Route [Inhibitor]: ORAL, Species: MOUSE, Strain/Sex: STRAIN-A/FEMALE, Target Tissue: Type of Lesion: LUNG: TUMOR, Dose [Carcinogen]: 2.2 MMOL/KG BW (TOTAL DOSE) ADMINISTERED IN DRINKING WATER FOR 7 WK, Promoter: NONE USED): 29/29 (100%), 24/24 (100%), 0%, not significant
- tumour outcome (control, treated, inhibition, significance) (Carcinogen: 7,12-DIMETHYLBENZ[A]ANTHRACENE, 57-97-6, Dose [Inhibitor]: 0.6% NEUTRALIZED WITH 12 MG SODIUM CARBONATE DAILY (STUDY DURATION: 14 WK), Route [Inhibitor]: ORAL, Species: HAMSTER, Strain/Sex: SYRIAN/FEMALE, MALE, Target Tissue: Type of Lesion: BUCCAL CELLS: EPIDERMOID TUMORS, Dose [Carcinogen]: 0.5% SOLUTION IN MINERAL OIL 3/WK FOR UP TO 14 WK, Promoter: NONE USED): 6.4%, 4.8%, 25%, p<0.1
- tumour outcome (control, treated, inhibition, significance) (Carcinogen: AZOXYMETHANE, 25843-45-2, Dose [Inhibitor]: 0, 200 PPM IN DIET BEGINNING 2 WK PRIOR TO CARCINOGEN TREATMENT AND CONTINUING FOR 52 WK (STUDY DURATION: 54 WK), Route [Inhibitor]: ORAL, Species: RAT, Strain/Sex: F344/MALE, Target Tissue: Type of Lesion: COLON: ADENOCARCINOMA, Dose [Carcinogen]: 15 MG/KG BW 1/WK FOR 2 WK, Promoter: NONE USED): 78%, 53%, 32%, p<0.05
- tumour outcome (control, treated, inhibition, significance) (Carcinogen: AZOXYMETHANE, 25843-45-2, Dose [Inhibitor]: 0, 250 PPM IN DIET FOR 13 WK BEGINNING 36 WK POST LAST CARCINOGEN DOSE (STUDY DURATION: 49 WK), Route [Inhibitor]: ORAL, Species: RAT, Strain/Sex: F344/MALE, Target Tissue: Type of Lesion: COLON: ADENOMA, Dose [Carcinogen]: 12 MG/KG BW IN 0.9% SALINE TWICE, Promoter: CHOLIC ACID, 81-25-4): 81%, 94%, -16%, not significant
- tumour outcome (control, treated, inhibition, significance) (Carcinogen: AZOXYMETHANE, 25843-45-2, Dose [Inhibitor]: 0, 250 PPM IN DIET FOR 13 WK BEGINNING 36 WK POST LAST CARCINOGEN DOSE (STUDY DURATION: 49 WK), Route [Inhibitor]: ORAL, Species: RAT, Strain/Sex: F344/MALE, Target Tissue: Type of Lesion: SMALL INTESTINE: ADENOCARCINOMA, Dose [Carcinogen]: 12 MG/KG BW IN 0.9% SALINE TWICE, Promoter: CHOLIC ACID, 81-25-4): 23%, 19%, 17%, not significant
- tumour outcome (control, treated, inhibition, significance) (Carcinogen: AZOXYMETHANE, 25843-45-2, Dose [Inhibitor]: 0, 250 PPM IN DIET FOR 13 WK BEGINNING 36 WK POST LAST CARCINOGEN DOSE (STUDY DURATION: 49 WK), Route [Inhibitor]: ORAL, Species: RAT, Strain/Sex: F344/MALE, Target Tissue: Type of Lesion: SMALL INTESTINE: ADENOMA, Dose [Carcinogen]: 12 MG/KG BW IN 0.9% SALINE TWICE, Promoter: CHOLIC ACID, 81-25-4): 17%, 47%, -176%, p<0.05
